For data set [1], the target named is T1, Human Factor Xa (Homo sapiens, UniProt P00742).
T1 construct: hFXa: Human Factor Xa: 71nkat; purchased 71nkat
The data set is described as follows: Selectivity to coagulation factors: hFXa (substrate S-2222). The data set is classed as biochemical. On the procedure:
(§1) Example 52: Investigation of the Selectivity of the Compounds of the Present Invention to Coagulation Factors
(§2) Enzyme: hFXa: Human Factor Xa: 71nkat. hFIIa: HT5146L. hFVIIa: Human Factor VIIa: hFVIIa 4591L. kallikrein: LOT180223.
hFXa buffer: 100 mM NaCl, 5 mM CaCl2, 33% ethylene glycol, 50 mM Tris (pH 7.5).
(§3) 10 mM test compound dissolved in 100% DMSO was diluted with 100% DMSO to 1000, 200, 40, 8, 1.6 μM. 98 μL of enzyme solution was added to each well of a 96-well plate, while 98 μL of buffer was added to the blank wells. 2 μL of compounds of different concentrations were added, while the blank and control wells were added with DMSO instead. They were mixed with a shaker, and incubated at 37° C. for 20 min.
(§4) The concentrations of hFXa and S-2222™ were FXa (1:28) and 800 μmol/L, respectively. The concentrations of hFIIa and S-2238™ were hFIIa (0.06 U/ml) and 500 μmol/L, respectively. The concentrations of hFVIIa and S-2288™ were hFVIIa (80 nM) and 1600 μmol/L, respectively. The concentrations of kallikrein and substrate were kallikrein (20 nM) and 1600 μmol/L, respectively.
(§5) Finally, 100 μL substrate was added to each well, and its absorbance was measured at 405 nm.

Data set [2] concerns the target T2, hFIIa (Homo sapiens, UniProt P00734).
T2 construct: purchased HT5146L
Put plainly: Selectivity to coagulation factors: hFIIa (substrate S-2238). The data set is classed as biochemical. The protocol:
as §1, §2, §3, §4, §5

In data set [3] the target is T3, CYP2D6 (Homo sapiens, UniProt P10635).
T3 construct: Liver microsomes (150-donor, Corning, Cat. 452117; Lot; 38292), NADPH; tissue Corning 452117; host or cells: liver microsomes, 150-donor pool
T3 sequence (P10635 whole entry): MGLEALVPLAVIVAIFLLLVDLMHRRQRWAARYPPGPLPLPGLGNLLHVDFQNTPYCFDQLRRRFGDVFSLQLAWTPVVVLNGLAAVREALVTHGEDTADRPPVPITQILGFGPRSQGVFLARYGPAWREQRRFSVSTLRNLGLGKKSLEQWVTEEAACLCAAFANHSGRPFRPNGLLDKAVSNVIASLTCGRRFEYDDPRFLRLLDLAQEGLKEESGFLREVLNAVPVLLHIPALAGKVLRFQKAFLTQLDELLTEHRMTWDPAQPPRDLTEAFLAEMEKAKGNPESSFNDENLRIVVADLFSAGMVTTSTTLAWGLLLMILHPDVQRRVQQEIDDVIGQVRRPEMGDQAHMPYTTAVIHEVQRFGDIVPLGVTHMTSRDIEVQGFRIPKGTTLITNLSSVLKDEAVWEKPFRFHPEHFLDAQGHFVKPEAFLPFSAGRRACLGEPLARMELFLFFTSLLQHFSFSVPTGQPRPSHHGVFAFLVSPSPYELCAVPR
The data set is described as follows: CYP enzyme inhibition in liver microsomes: CYP2D6. The format is in vitro ADME. The settings on record: 0.2 mg/mL liver microsomes. The protocol:
(§6) Example 55: Investigation of CYP Enzyme Inhibition by the Compounds of the Present Invention Liver microsomes (150-donor, Corning, Cat. 452117; Lot. 38292), NADPH. A 0.2 mg/mL microsome system was prepared, each test substance and substrate were added, and the final concentration of the test substance was 50 μM. After pre-incubating for 8 min, 10 mM NADPH was added to start the reaction, and the final concentration of NADPH was 1 mM. After a period of incubation, an internal standard such as methanol was added to stop the reaction. The amount of substrate metabolites generated in each reaction well was detected. Data processing: Taking the metabolite generation in the blank well as 100%, the reduction of metabolite generation in each well of the test substance was calculated, and the inhibition rate was calculated.

For data set [4], the target named is T4, CYP3A5 (Homo sapiens, UniProt P20815).
T4 construct: Liver microsomes (150-donor, Corning, Cat. 452117; Lot; 38292), NADPH; tissue Corning 452117; host or cells: liver microsomes, 150-donor pool
T4 sequence (P20815 whole entry): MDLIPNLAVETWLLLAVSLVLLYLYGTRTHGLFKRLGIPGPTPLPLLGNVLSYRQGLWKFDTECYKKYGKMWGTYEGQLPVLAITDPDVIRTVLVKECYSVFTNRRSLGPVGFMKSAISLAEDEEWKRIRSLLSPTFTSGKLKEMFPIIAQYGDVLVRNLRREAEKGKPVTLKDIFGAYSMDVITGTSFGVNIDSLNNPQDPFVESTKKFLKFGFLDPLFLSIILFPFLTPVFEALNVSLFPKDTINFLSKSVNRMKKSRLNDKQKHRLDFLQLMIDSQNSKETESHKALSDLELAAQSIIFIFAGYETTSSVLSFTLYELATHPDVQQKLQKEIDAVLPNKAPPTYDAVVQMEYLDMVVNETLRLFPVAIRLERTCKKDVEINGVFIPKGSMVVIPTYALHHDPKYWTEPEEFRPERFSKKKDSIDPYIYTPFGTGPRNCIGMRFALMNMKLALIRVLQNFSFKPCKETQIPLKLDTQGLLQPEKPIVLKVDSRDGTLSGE
Put plainly: CYP enzyme inhibition in liver microsomes: CYP3A5. The format is in vitro ADME. The conditions noted are these: 0.2 mg/mL liver microsomes. The protocol: as §6

The target in data set [5] is Human Factor XIa (Homo sapiens, UniProt P03951). The data set is described as follows: Inhibition of human coagulation factor XIa by absorptiometry (substrate S-2366). The data set is classed as biochemical. The settings on record: 37° C., 20 min incubation, absorbance 405 nm; read-out: hFXIa IC50.
Human Factor XIa, sequence (P03951 388-625 limits assumed): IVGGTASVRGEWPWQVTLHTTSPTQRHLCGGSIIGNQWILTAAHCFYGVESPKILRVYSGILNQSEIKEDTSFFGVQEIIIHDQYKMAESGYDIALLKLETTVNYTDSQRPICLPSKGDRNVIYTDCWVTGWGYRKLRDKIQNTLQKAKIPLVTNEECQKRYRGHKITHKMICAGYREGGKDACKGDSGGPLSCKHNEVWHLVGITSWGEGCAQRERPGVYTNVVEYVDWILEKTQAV
Human Factor XIa, sequence (P03951 19-387 partner limits assumed): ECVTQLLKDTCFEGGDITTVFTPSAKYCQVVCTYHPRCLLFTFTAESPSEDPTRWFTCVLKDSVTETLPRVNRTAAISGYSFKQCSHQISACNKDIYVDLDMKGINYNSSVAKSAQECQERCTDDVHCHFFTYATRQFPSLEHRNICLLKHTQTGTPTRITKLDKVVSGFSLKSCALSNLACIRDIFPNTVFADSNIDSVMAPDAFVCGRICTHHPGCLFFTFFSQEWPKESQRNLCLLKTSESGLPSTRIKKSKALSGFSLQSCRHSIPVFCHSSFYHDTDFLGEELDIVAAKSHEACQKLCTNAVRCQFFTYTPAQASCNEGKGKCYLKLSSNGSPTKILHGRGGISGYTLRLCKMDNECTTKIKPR
Data set [6] can be described thus: Beagle dog pharmacokinetics. The data set is classed as in vivo. The settings on record: for AUC / Cmax / Tmax / clearance / half-life / Vd: male, plasma; for Vd: read-out: Vss. From the text: Example 53: Investigation of the Pharmacokinetic Characteristics of the Compounds of the Present Invention
SD rats: male, 180-250 g, purchased from Guangdong Medical Laboratory Animal Center. Cynomolgus monkey: male, 4-6 kg, purchased from Guangzhou Chunsheng Biological Research Institute Co., Ltd. Beagle dog: male, 8-12 kg, developed in Kanglong Chemical (Ningbo) New Drug Technology Co., Ltd.
Reagents: DMSO (dimethyl sulfoxide), PEG-400 (polyethylene glycol 400), normal brine, heparin, acetonitrile, formic acid, and propranolol (internal standard) are commercially available.
Instrumentation: Thermo Fisher Scientific LC-MS (U300 UPLC, TSQ […] ULTRA triple quadrupole mass spectrometer).
The compound was weighed and dissolved in DMSO-PEG-400-physiological brine (5:60:35, v/v/v) system. After the rats/monkeys were administered intravenously or by gavage, 200 μL of venous blood was collected at 5 min (not collected when administered by gavage), 15 min, 30 min, 1 h, 2 h, 4 h, 6 h, 8 h, and 24 h in heparinized EP tubes, centrifuged at 12000 rpm for 2 min, and the plasma was frozen at −80° C. for testing. A certain amount of the test substance was precisely weighed and dissolved in DMSO to 1 mg/mL, which was used as a stock solution. An appropriate amount of compound stock solution was accurately pipetted and diluted with acetonitrile to prepare a standard series of solutions. 20 μL of each of the above standard series solutions were accurately pipetted, added with 180 μL of blank plasma, vortexed and mixed to prepare plasma samples equivalent to plasma concentrations of 1, 3, 10, 30, 100, 300, 1000, 3000 and 5000 ng/mL. Two-sample analysis was performed for each concentration to establish a standard curve. 20 μL of plasma was taken out, added with 200 μL of internal standard propranolol (5 ng/mL) in acetonitrile, vortexed and mixed. It was centrifuged at 4000 rpm for 5 min, and the supernatant was collected for LC-MS analysis. LC-MS detection conditions were as follows:
Chromatographic column: Thermo Scientific […] GOLD C-18 UPLC column, 100*2.1 mm, 1.9 μm.
Mobile phase: water (0.1% formic acid)-acetonitrile for gradient elution according to the table below.
After blood drug concentrations being detected by LC-MS, WinNonlin 6.1 software was used to calculate pharmacokinetic parameters by non-compartmental model method.

Each structure is given as a SMILES string.

T1 sequence (P00742 235-488 limits assumed): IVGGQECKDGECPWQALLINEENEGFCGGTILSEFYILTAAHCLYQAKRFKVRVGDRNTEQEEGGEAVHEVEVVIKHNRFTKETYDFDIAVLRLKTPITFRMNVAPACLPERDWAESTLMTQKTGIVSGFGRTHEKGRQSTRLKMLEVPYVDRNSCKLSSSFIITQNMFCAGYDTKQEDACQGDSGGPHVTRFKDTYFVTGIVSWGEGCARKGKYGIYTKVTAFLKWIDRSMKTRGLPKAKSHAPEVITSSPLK
T1 sequence (P00742 41-179 partner limits assumed): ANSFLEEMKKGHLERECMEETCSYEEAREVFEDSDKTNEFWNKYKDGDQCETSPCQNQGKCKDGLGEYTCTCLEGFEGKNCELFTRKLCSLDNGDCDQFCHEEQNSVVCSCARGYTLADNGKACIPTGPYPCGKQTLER

As for `COc1nn([C@@H](Cc2ccccc2)C(=O)Nc2ccc(C(=O)O)cc2)c(=O)cc1-c1cc(Cl)ccc1C(C)=O` [Example 19, (S)-4-(2-(4-(2-acetyl-5-chlorophenyl)-3-methoxy-6-oxopyridazin-1(6H)-yl)-3-phenylpropanamido)benzoic acid], the IC50 in data set [1] was > 100 µM. Also, the IC50 in data set [2] is > 100 µM. The IC50 in data set [3] was > 50 µM. For the same molecule, the half-maximal inhibitory concentration (IC50) in data set [4] is > 50 µM. For the same molecule, the IC50 in data set [5] was found to be 0.00761 µM. The molecule also registered a F in data set [6] (ig) of 65.5%. Moreover, in data set [6] (iv), the AUC stood at 1410 ng·h/mL, the Cmax is 2580 ng/mL, the Tmax worked out at 0.083 h and the clearance worked out at 11.8 mL/min/kg. In addition, in data set [6] (iv), the half-life was 4.2 h and the Vd amounted to 0.8 L/kg. For the same molecule, in data set [6] (po, ig), the AUC was determined as 9230 ng·h/mL, the concentration peaked (Cmax) at 2320 ng/mL, the Tmax stood at 1.25 h and the half-life is 3.6 h.
`CCC(=O)c1ccc(Cl)cc1-c1cc(=O)n([C@@H](Cc2ccccc2)C(=O)Nc2ccc(C(=O)O)cc2)nc1OC` [Example 32]: the IC50 in data set [1] was > 100 µM. Moreover, the IC50 in data set [2] is > 100 µM. Besides, in data set [3], the IC50 was > 50 µM. Further, the IC50 in data set [4] was > 50 µM. For the same molecule, the half-maximal inhibitory concentration (IC50) in data set [5] came out at 0.00165 µM. In data set [6] (ig), the F was 49.6%. For the same molecule, in data set [6] (iv), the AUC worked out at 756 ng·h/mL, the peak level (Cmax) was 2190 ng/mL, the Tmax came to 0.083 h and the clearance was found to be 22.7 mL/min/kg. For the same molecule, in data set [6] (iv), the half-life was 7.77 h and the Vd is 2.64 L/kg. Also, in data set [6] (po, ig), the AUC was 3770 ng·h/mL, the Cmax was determined as 1600 ng/mL, the Tmax came out at 0.25 h and the half-life was 4.51 h.

The values are drawn from US20230027295A1, “FXIA INHIBITORS AND PREPARATION METHOD THEREFOR AND PHARMACEUTICAL USE THEREOF” (Shenzhen Salubris Pharmaceuticals Co., Ltd., priority 2019, published 2023).
